In patent publication US11505558B1, “Antiviral heterocyclic compounds” (Enanta Pharmaceuticals, Inc., priority 2019, dated 2022):

What was measured:
[1] = test system: genotype A, "Long" strain RSV; experiment: RSV-A assay (CPE, ATPlite readout in Hep-2 cells); type: cell-based; conditions: human respiratory syncytial virus, HEp-2, Hep-2 cells, genotype A "Long" strain RSV, MOI 0.1; read-out: Human RSV-A (“Long” strain) EC50
In short: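 Hep-2 cells (8,000/well) received 2-fold serial compound dilutions in duplicate and RSV Long strain at MOI 0.1. After 5 days' incubation, cell health was read as ATP by ATPlite luminescence, with virus-only and uninfected controls defining max and minimum CPE; EC50 reported.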

[2] = test system: recombinant HMPV CAN97-83 (MPV-GFP1); experiment: HMPV antiviral assay (MPV-GFP1 eGFP fluorescence in Vero E6 cells); type: cell-based; conditions: human metapneumovirus, Vero C1008, 120 h, read-out: HMPV EC50
In short: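 Vero E6 cells in serum-free OptiMEM with 0.5 μg/mL TPCK-trypsin infected with eGFP-expressing HMPV CAN97-83 (MPV-GFP1) at MOI 0.05. 8-point […] ½-step dilutions from 8 or 2 μM, 0.5% DMSO, 5 days at 32 °C. eGFP fluorescence normalized to infected untreated wells; EC50 from four-parameter logistic fit.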

[3] = test system: HRSV; conditions: prophylactic use, high risk infants; cited from earlier work

Row | Compound | EC50 [1] [nM] | EC50 [2] [nM] | effective in reducing hospitalizations [3] [%]
1 | Cc1cc2cc(C(=O)NC[C@](O)(c3cc4c(c(-c5ccc(F)c(Cl)c5)n3)OC[C@]4(C)C(N)=O)C(F)(F)F)ccc2nn1 [Example 617] | < 200 | < 500 | 
2 | Cc1cnc2c(NC(=O)c3ccon3)cc(C(=O)NC[C@](O)(c3cc4c(c(-c5ccc(F)cc5)n3)OC[C@]4(C)C(N)=O)C(F)(F)F)cc2c1 [Example 621] | < 200 | > 500 | 
3 | Cc1cnc2c(NC(=O)NCC(C)(C)F)cc(C(=O)NC[C@](O)(c3cc4c(c(-c5ccc(F)cc5)n3)OC[C@]4(C)C(N)=O)C(F)(F)F)cc2c1 [Example 622] | < 200 | < 500 | 
4 | Cc1cnc2c(NC(=O)c3nc(C)co3)cc(C(=O)NC[C@](O)(c3cc4c(c(-c5ccc(F)cc5)n3)OC[C@]4(C)C(N)=O)C(F)(F)F)cc2c1 [Example 623] | < 200 | > 500 | 
5 | Cc1cnc2c(NC(=O)c3cnc(C)o3)cc(C(=O)NC[C@](O)(c3cc4c(c(-c5ccc(F)cc5)n3)OC[C@]4(C)C(N)=O)C(F)(F)F)cc2c1 [Example 624] | < 200 | < 500 | 
6 | Cc1ccc2cc(C(=O)NC[C@](O)(c3cc4c(c(-c5ccc(F)cc5)n3)OC[C@]4(C)C(N)=O)C(F)(F)F)cc(NC(=O)C3CC3)c2n1 [Example 626] | < 200 | > 500 | 
7 | Cc1ccc2cc(C(=O)NC[C@](O)(c3cc4c(c(-c5ccc(F)cc5)n3)OC[C@]4(C)C(N)=O)C(F)(F)F)cc(NC(=O)C3(F)CC3)c2n1 [Example 627] | < 200 | > 500 | 
8 | C[C@]1(C(N)=O)COc2c1cc([C@@](O)(CNC(=O)c1cc(Cl)c3nc(N)sc3c1)C(F)(F)F)nc2-c1ccc(F)cc1 [Example 633] | < 200 | < 500 | 
9 | COc1cc(C(=O)NC[C@](O)(c2cc3c(c(-c4ccc(F)cc4)n2)OC[C@]3(C)C(=O)NCC(C)(C)O)C(F)(F)F)cc2cn(C)nc12 [Example 635] | < 200 | < 500 | 
10 | Cn1cc2cc(C(=O)NC[C@](O)(c3cc4c(c(-c5ccc(F)c(Cl)c5)n3)OC[C@]4(C)C(N)=O)C3CC3)ccc2n1 [Example 638] | < 200 | < 500 | 
11 | Cn1cc2cc(C(=O)NC[C@](O)(c3cc4c(c(-c5ccc(F)cc5)n3)OC[C@]4(C)C(=O)NCC(C)(C)O)C(F)(F)F)ccc2n1 [Example 640] | < 200 | > 500 | 
12 | Cc1ccc(-c2nc([C@@](O)(CNC(=O)c3ccc4nn(C)cc4c3)C(F)(F)F)cc3c2OC[C@]3(C)C(N)=O)cc1 [Example 641] | < 200 | > 500 | 
13 | Cn1cc2cc(C(=O)NC[C@](O)(c3cc4c(c(-c5ccc(F)cc5)n3)OC[C@]4(C)C(=O)NCC(C)(C)O)C3CC3)ccc2n1 [Example 642] | < 200 | > 500 | 
14 | COc1cc(C(=O)NC[C@](O)(c2cc3c(c(-c4ccc(F)cc4)n2)OCC3(F)C(N)=O)C(F)(F)F)cc2cc(Cl)c(C)nc12 (some centres unmarked) [Example 668] | < 200 | < 500 | 
15 | COc1cc(C(=O)NC[C@](O)(c2cc3c(c(-c4ccc(F)cc4)n2)OCC3(F)C(N)=O)C(F)(F)F)cc2cccnc12 (some centres unmarked) [Example 669] | < 200 | > 500 | 
16 | COc1cc(C(=O)NC[C@](O)(c2cc3c(c(-c4ccc(F)cc4)n2)OCC3(F)C(N)=O)C(F)(F)F)cc2cn(C(F)F)nc12 (some centres unmarked) [Example 670] | < 200 | < 500 | 
17 | COc1cc(C(=O)NC[C@](O)(c2cc3c(c(-c4ccc(F)cc4)n2)OCC3(F)C(N)=O)C(F)(F)F)cc2cn(C3CC3)nc12 (some centres unmarked) [Example 676] | < 200 | < 500 | 
18 | Palivizumab |  |  | 60
